{"source": "patent US20080170990A1", "about": "“Methods for Myocardial Imaging in Patients Having a History of Pulmonary Disease” (CV THERAPEUTICS, INC., priority 2006, published 2008)", "key": {"[1]": {"test_system": "anesthetized dog", "assay": "Blood flow velocity in various vascular beds, intravascular Doppler (Example 4)", "type": "in vivo", "conditions": "1.0 μg/kg intravenous bolus", "source_text": "The effects of Regadenoson were quantified as the average peak blood flow velocity (APV) using intravascular Doppler transducer tipped catheter. Heart rate (HR) and systemic arterial blood pressure (BP) were also monitored."}, "[2]": {"test_system": "subjects undergoing stress/rest MPI", "assay": "Stress/rest SPECT myocardial perfusion imaging, adenosine vs Regadenoson (Example 6)", "type": "in vivo, human", "conditions": "4D MSPECT; p=n.s.", "description": "To determine the ability of Regadenoson to produce coronary hyperemia and accurately detect CAD, 35 subjects (26 men, 9 women; 67±10 years) underwent both A and Regadenoson stress/rest MPI, with 10.0±9.1 days between studies. […] Regadenoson [400 mcg (n=18), 500 mcg (n=17)] was administered as an IV bolus immediately followed by a saline flush, and then a Tc-99m radiopharmaceutical [sestamibi (n=34), tetrofosmin (n=1)]. SPECT images were uniformly processed, intermixed with control studies (normal and fixed-only defects), and interpreted by three observers in a blinded fashion using a 17-segment model. Quantitative analysis was also performed using 4D MSPECT. In addition to three separate readings, a consensus interpretation was performed and then a direct, same-screen comparison of A and REGADENASON images undertaken to determine relative differences, using 5 regions per study."}, "[3]": {"test_system": "awake rats", "assay": "Sympathoexcitation: heart rate, blood pressure and plasma catecholamines after i.v. bolus (Example 5)", "type": "in vivo, rat", "description": "CVT (0.31 μg/kg-50 μg/kg) was given as a rapid i.v. bolus to awake rats and heart rate (HR) and blood pressure (BP) were monitored. Regadenoson caused an increase in BP and systolic pressure (SP) at lower doses while at higher doses there was a decrease in BP and SP. […] The increase in HR was evident at the lowest dose of CVT at which there was no appreciable decrease in BP. ZM241385 (30 μg/kg, N=5), an A2A adenosine receptor antagonist, attenuated the decrease in BP (Regadenoson: 14±3%, ZM: 1±1%) and the increase in HR (CVT: 27±3%, ZM: 18±3%) caused by Regadenoson. Pretreatment with metoprolol (MET, 1 mg/kg, n=5), a beta-blocker, attenuated the increase in HR (CVT: 27±3%, MET: 15±2%), but had no effect on hypotension caused by Regadenoson. In the presence of hexamethonium (HEX, 10 mg/kg, n=5), a ganglionic blocker, the tachycardia was prevented (CVT: 27±3%, HEX: −1±2%), but BP was further reduced (CVT: −11±2%, HEX: −49±5%)."}, "[4]": {"test_system": "patients with moderate or several chronic obstructive pulmonary disease (COPD)", "assay": "Double-blind placebo-controlled crossover trial in chronic obstructive pulmonary disease (Example 11)", "type": "in vivo, human", "description": "(§1) Two similar randomized, double-blind, placebo (PLC)-controlled crossover trials were conducted, one in asthmatics with a positive adenosine monophosphate (AMP) challenge (a validated marker of airway inflammation) and one in patients with moderate or several chronic obstructive pulmonary disease (COPD). In both studies, short-acting bronchodilators were held prior to and for the 120 minute time frame study drug treatment during which spirometry was repeatedly assessed."}, "[5]": {"test_system": "AMP-sensitive subjects with mild or moderate asthma", "assay": "Double-blind placebo-controlled cross-over study of pulmonary function in AMP-sensitive asthma (Examples 9, 11)", "type": "in vivo, human", "description": "The primary objective was to compare the incidence of bronchoconstrictive reactions, defined as reduction from baseline in FEV1 of >15% within 2 hours following an intravenous (iv) bolus of 400 micrograms of Regadenoson or matching placebo.\nMen or women ≧18 years of age with a diagnosis of mild or moderate asthma as documented by clinical history and pulmonary function test were considered for inclusion. The target was to enrolled 48 evaluable subjects: 24 mild and 24 moderate asthma subjects. […] Patients were not permitted short-acting bronchodilators for >6 hours and long-acting bronchodilators and methylxanthines for >24 hours prior to AMP, Regadenoson, or placebo.\nAMP (adenosine 5′-monophosphate sodium salt) was used as an indirect bronchoconstrictor stimulus to select a group of susceptible subjects with adenosine-mediated bronchial hyperreactivity. A standard clinical protocol utilized by the investigative site for the inhalation of AMP for the purpose of provoking a bronchoconstrictor response in the airways was adopted for screening of all subjects. On arrival in the unit, subjects were required to rest for 15 minutes before assessment of lung function at baseline, measured as the best of 3 technically acceptable recordings of FEV1 taken at 1-minute intervals. Subject inhaled a series of five breaths of saline as control, followed by a breath of each increasing concentration of AMP at 3-minute intervals. Two measurements of FEV1 were to be made 90 and 150 seconds after each saline inhalation. The highest FEV1 value was to be recorded. Unless a fall in FEV1 of >10% from the baseline value was observed, subjects then inhaled increasing doubling concentrations of AMP (starting at 0.39 mg/mL) until a ≧20% decrease of FEV1 from the post-saline value was recorded. FEV1 was to be recorded at 90 and 150 seconds after each concentration was administered.\nSubjects received 400 μg Regadenoson or placebo administered as an intravenous (iv) bolus in a double-blind cross-over design. Repeated measurements of FEV1 as an assessment of bronchoconstriction were performed before and for up to 2 hours after study drug administration.\nas §1"}}}
{"smiles": "CNC(=O)c1cnn(-c2nc(N)c3ncn([C@@H]4O[C@H](CO)[C@@H](O)[C@H]4O)c3n2)c1", "note": "[Regadenoson, (1-{9-[(4S,2R,3R,5R)-3,4-dihydroxy-5-(hydroxymethyl)oxolan-2-yl]-6-aminopurin-2-yl}pyrazol-4-yl)-N-methylcarboxamide]", "values": [{"measurement": "time for effect on blood flow velocity to dissipate", "setting": "[1]", "result": "less than ten minutes"}, {"measurement": "summed score following stress, quantitative analysis", "setting": "[2]", "result": "133.6±1.6"}, {"measurement": "effect on HR", "setting": "[3]; 0.31 μg/kg-50 μg/kg rapid i.v. bolus", "result": "dose-dependent increase in HR"}, {"measurement": "BP change caused by Regadenoson", "setting": "[3]; CVT alone (hexamethonium experiment)", "result": "−11±2", "unit": "%"}, {"measurement": "increase in HR caused by Regadenoson", "setting": "[3]; CVT alone (printed three times: ZM, MET, HEX comparisons)", "result": "27±3", "unit": "%"}, {"measurement": "decrease in BP caused by Regadenoson", "setting": "[3]; Regadenoson alone (ZM241385 experiment)", "result": "14±3", "unit": "%"}, {"measurement": "incidence of dyspnea following REG", "setting": "[4]; COPD study", "result": 61, "unit": "%"}, {"measurement": "Number of patients with FEV1 decline by >20% over 120 min", "setting": "[4]; COPD study N=49", "result": "2 REG, 3 PLC"}, {"measurement": "Number of patients with FEV1 decline by >30% over 120 min", "setting": "[4]; COPD study N=49", "result": "0 REG, 1 PLC"}, {"measurement": "Number of patients with use of acute oxygen or short-acting bronchodilators", "setting": "[4]; COPD study N=49", "result": "0 REG, 0 PLC"}, {"measurement": "Number of patients with FEV1 decline by >15% over 120 min", "setting": "[4]; COPD study N=49, p = 0.31", "result": "6 REG, 3 PLC"}, {"measurement": "Number of patients with new onset wheezing", "setting": "[4]; COPD study N=49, p = 0.33 vs PLC", "result": "3 REG, 6 PLC"}, {"measurement": "Maximum decline in FEV1", "setting": "[4]; COPD study N=49, p = 0.55 vs PLC", "result": "0.11 (0.14)L REG"}, {"measurement": "Maximum decline in oxygen saturation", "setting": "[4]; COPD study N=49, p = 0.72 vs PLC", "result": "1.21 (1.30)% REG"}, {"measurement": "incidence of chest discomfort", "setting": "[5]; 400 μg iv bolus", "result": 21, "unit": "%"}, {"measurement": "incidence of dizziness", "setting": "[5]; 400 μg iv bolus", "result": 53, "unit": "%"}, {"measurement": "incidence of dyspnea", "setting": "[5]; 400 μg iv bolus", "result": 34, "unit": "%"}, {"measurement": "incidence of flushing", "setting": "[5]; 400 μg iv bolus", "result": 32, "unit": "%"}, {"measurement": "incidence of headache", "setting": "[5]; 400 μg iv bolus", "result": 45, "unit": "%"}, {"measurement": "incidence of nausea", "setting": "[5]; 400 μg iv bolus", "result": 19, "unit": "%"}, {"measurement": "incidence of paraesthesia", "setting": "[5]; 400 μg iv bolus", "result": 19, "unit": "%"}, {"measurement": "incidence of tachycardia", "setting": "[5]; 400 μg iv bolus", "result": 66, "unit": "%"}, {"measurement": "time for HR to return to within 5 bpm of baseline", "setting": "[5]; 400 μg iv bolus", "result": "≤ 60", "unit": "min"}, {"measurement": "maximum increase in HR", "setting": "[5]; 400 μg iv bolus, compared with placebo", "result": "+10.4 bpm"}, {"measurement": "incidence of adverse events", "setting": "[5]; 400 μg iv bolus, placebo 8%", "result": 98, "unit": "%"}, {"measurement": "incidence of dyspnea following REG", "setting": "[5]; asthma study", "result": 34, "unit": "%"}, {"measurement": "Number of patients with FEV1 decline by >20% over 120 min", "setting": "[5]; asthma study N=48", "result": "1 REG, 0 PLC"}, {"measurement": "Number of patients with FEV1 decline by >30% over 120 min", "setting": "[5]; asthma study N=48", "result": "1 REG, 0 PLC"}, {"measurement": "Number of patients with use of acute oxygen or short-acting bronchodilators", "setting": "[5]; asthma study N=48", "result": "0 REG, 0 PLC"}, {"measurement": "mean FEV1, all post-bolus time points combined", "setting": "[5]; asthma study N=48, p = 0.17 vs PLC", "result": "3.33 (0.9)L REG"}, {"measurement": "Number of patients with FEV1 decline by >15% over 120 min", "setting": "[5]; asthma study N=48, p = 0.99", "result": "2 REG, 2 PLC"}, {"measurement": "subjects with bronchoconstriction (FEV1 reduction >15% within 2 hours)", "setting": "[5]; mild asthma (n=24), 400 μg iv bolus", "result": "None"}, {"measurement": "number of subjects having bronchoconstriction (FEV1 reduction >15% within 2 hours)", "setting": "[5]; moderate asthma (n=24), 400 μg iv bolus", "result": 2}]}
